Results published in patent US11484529B2, “Desmethylanethole trithione derivatives for the treatment of diseases linked to mitochondrial reactive oxygen species (ROS) production” (OP2 Drugs, priority 2017, dated 2022).

System: isolated perfused rat heart
Test: Global ischemia-reperfusion of isolated perfused rat heart (Langendorff)
Settings: 10 μM AOL pretreatment, 30 min ischemia
Procedure: The consequences of 30 minutes' global ischemia followed by 120 minutes' reperfusion (FIG. 11) on contractility and tissue viability were studied on isolated perfused rat heart pretreated or not (control vehicle) with 10 μM AOL.
All procedures conformed to the UK Animals (Scientific Procedures) Act 1986 and the Guide for the Care and Use of Laboratory Animals published by the National Institutes of Health (NIH Publication No. 85-23. revised 1996). Male Wistar rats (250-300 g) were anesthetized by 3% isoflurane, heparinized and euthanized by a lethal IP injection of pentobarbital (130 mg/kg). […] Langendorff heart perfusions were performed (Garlid et al., 2006. Am. J. Physiol. Heart Circ. Physiol. 291(1):H152-60) and contractility was assessed by continuous measurement of the rate pressure product (RPP) thanks to a balloon placed in the left ventricle and connected to a pressure transducer. […]
At the end of the reperfusion period, hearts were stained with triphenyltetrazolium chloride (TTC): hearts were perfused for 7 minutes at 13 mL/min with a 12% (w/v) TTC solution in order to get a 1% final concentration in the heart. […] The surface of the necrotic and at-risk areas of each side were determined on each photography by planimetry (AlphaEase v5.5), and infarct size was expressed as a percentage of the total cross-sectional area of the heart, since total heart was subjected to ischemia.

## COc1ccc(-c2cc(=S)ss2)cc1 [AOL, 5-(4-methoxyphenyl)-3H-1,2-dithiole-3-thione]
120 min reperfusion
  infarcted tissue rescued (TTC staining): about 50%
After 2 hours of reperfusion
  heart contractility (RPP) relative to control hearts: about three times higher than control hearts
